Results reported in ChEMBL document CHEMBL5120964, “Novel Antagonist of the Type 2 Lysophosphatidic Acid Receptor (LPA2), UCM-14216, Ameliorates Spinal Cord Injury in Mice” (J Med Chem, 2022).
Values belong to the compound of their own block, whether it stands above or below them. Activity calls are given as the source filed them. No cut-off for these calls is given here.

Assays:
[1] = Plasma concentration in C57B1/6J mouse at 25 mg/kg, ip measured after 0.5 hrs by HPLC-MS analysis
Mus musculus [2] = assay: Protection of spinal cord injury-induced locomotor defect in C57B1/6J mouse model assessed as increase in locomotor activity at 25 mg/kg, ip treated for 10 consecutive days; type: functional, organism-based
Mus musculus [3] = assay: Protection of spinal cord injury-induced locomotor defect in C57B1/6J mouse model assessed as increase in motor skills at 25 mg/kg, ip treated 35 days after post injury for 10 consecutive days; type: functional, organism-based; details: time 35.0 day
Mus musculus [4] = assay: Protection of spinal cord injury-induced locomotor defect in C57B1/6J mouse model assessed as frequent stepping at 25 mg/kg, ip treated 35 days after post injury for 10 consecutive days; type: functional, organism-based; details: time 35.0 day
[5] = target: T1, Lysophosphatidic acid receptor 2 (Homo sapiens, UniProt Q9HBW0); assay: Antagonist activity at LPA2 receptor (unknown origin) expressed in cells assessed as blockade of LPA-induced calcium mobilization measured after 120 secs by Fluo-4 NW dye based assay; type: functional, cell-based
T1 sequence (Q9HBW0 whole entry): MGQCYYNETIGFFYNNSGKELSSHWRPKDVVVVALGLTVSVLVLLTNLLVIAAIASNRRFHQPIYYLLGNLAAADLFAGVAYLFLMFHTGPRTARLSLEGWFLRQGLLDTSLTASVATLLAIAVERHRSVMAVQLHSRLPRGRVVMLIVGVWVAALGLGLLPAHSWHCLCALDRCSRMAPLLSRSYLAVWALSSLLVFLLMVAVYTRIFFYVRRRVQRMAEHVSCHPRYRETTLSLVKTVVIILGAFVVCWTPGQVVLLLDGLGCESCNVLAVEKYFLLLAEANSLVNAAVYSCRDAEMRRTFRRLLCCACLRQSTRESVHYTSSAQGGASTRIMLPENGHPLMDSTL

[6] = target: T1, Lysophosphatidic acid receptor 2; assay: Antagonist activity at LPA2 receptor (unknown origin) expressed in cells assessed as maximal blockade of LPA-induced calcium mobilization at 10 uM measured after 120 secs by Fluo-4 NW dye based assay relative to control; type: functional, cell-based; details: filed as antagonist, time 120.0 sec
[7] = target: T2, Lysophosphatidic acid receptor 3 (Homo sapiens) (UniProt Q9UBY5); assay: Antagonist activity at LPA3 receptor (unknown origin) expressed in cells assessed as maximal blockade of LPA-induced calcium mobilization at 10 uM measured after 120 secs by Fluo-4 NW dye based assay relative to control; type: functional, cell-based; details: filed as antagonist, time 120.0 sec
T2 sequence (whole entry): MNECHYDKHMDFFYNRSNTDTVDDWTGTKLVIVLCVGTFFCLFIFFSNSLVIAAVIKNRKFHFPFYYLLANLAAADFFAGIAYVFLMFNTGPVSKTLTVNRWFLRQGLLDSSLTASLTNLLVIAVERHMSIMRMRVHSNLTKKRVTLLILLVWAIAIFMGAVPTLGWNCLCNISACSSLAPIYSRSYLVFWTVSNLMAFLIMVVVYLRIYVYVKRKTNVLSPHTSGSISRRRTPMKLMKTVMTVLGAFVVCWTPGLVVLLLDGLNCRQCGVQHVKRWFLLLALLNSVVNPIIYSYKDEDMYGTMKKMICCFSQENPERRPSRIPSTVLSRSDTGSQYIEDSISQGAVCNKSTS

[8] = Metabolic stability in human liver microsomes assessed as half life by HPLC-MS analysis; type: ADME, Microsome

SMILES: Cc1[nH]nc(-c2ccc(OCc3nnn[nH]3)cc2O)c1Oc1ccc(Cl)cc1Cl
concentration at 0.5 h [1]: 103000 ng/g
Activity (Mus musculus [2]): Active
Activity (Mus musculus [3]): Active
Activity (Mus musculus [4]): Active

SMILES: Cc1[nH]nc(-c2ccc(OCc3nnn[nH]3)cc2O)c1Oc1ccc(F)cc1F
IC50 [5]: 31 µM

Emax [6]: 58%
Emax [7]: 71%
SMILES: Cc1noc(-c2ccc(OCC(=O)O)cc2O)c1Oc1ccc(Cl)cc1Cl

t1/2 [8]: 1.02 h
SMILES: Cc1[nH]nc(-c2ccc(OCC(=O)O)cc2O)c1Oc1ccc(Cl)cc1Cl
